Laboratory results as given in patent publication US5508387A, “Selectin binding glycopeptides” (Glycomed Incorporated, priority 1993, dated 1996).

Experiments:
L-selectin = assay: ELISA assay: inhibition of L-selectin-IgG chimera binding to 2,3 sLex glycolipid; details: FIG. 4; tested at several concentrations; results expressed as percent of control binding
Experimental: (§1) An ELISA assay (Foxall et al, The Journal of Cell Biology (1992) 117:895) is preferably used which consists of the following three steps:
(§2) 1. 2,3 sLex glycolipid is transferred into microtitre wells as solutions and then evaporated off. Excess, which remained unattached, is washed off with water. The wells are then blocked with a blocking agent, preferably BSA.
(§3) 2. Preparation of "multivalent" receptor of the Selectin-IgG chimera is carried out by combining the respective chimera with biotin labelled goat F(ab')2 anti-human IgG (Fc specific) and streptavidin-alkaline phosphatase diluted appropriately and incubated. This allows the soluble multivalent receptor complex to form.
(§4) 3. Potential inhibitors such as glyco-amino acids or glycopeptides of structural formula I are allowed to react with the soluble receptor. This solution is then placed in the microtitre wells that are prepared in step 1. The plate is incubated to allow the soluble receptor to bind to its natural ligand. In the presence of a strong inhibitor only a few of the receptors should be free to bind to the microtitre plate coated with the natural ligand.
(§5) The positive control is the signal produced by the soluble receptor when it is allowed to react with the natural ligand in the microtitre wells in the absence of any inhibitor. This is considered 100% binding. The signal produced by the receptor that is previously treated with an inhibitor (recorded as O.D.), is divided by the signal produced by the positive control and multiplied by 100 to calculate the % receptor bound to the well in the presence of the inhibitor. The reciprocal of this is the % inhibition.
(§6) The glyco-amino acids or glycopeptides of structural formula I can be tested for their ability to bind to a selectin receptor and/or block the binding site of the receptor and thereby prevent a natural ligand from binding to the selectin receptor (Foxall et al, The Journal of Cell Biology (1992) 117:895). A generalized procedure for testing the ligands is given below.
(§7) An ELISA assay is preferably used which consisted of the following three steps:
1. 2,3 sLex glycolipid (25 picomol/well) was transferred into microtitre wells as solutions and evaporated off. Excess, which remained unattached, was washed off with water. The wells were blocked with 5% BSA at room temperature for an hour and washed with PBS containing 1 mM calcium.
2. Preparation of "multivalent" receptor of the Selectin-IgG chimera was carried out by combining the respective chimera (1 μg/mL) with biotin labelled goat F(ab')2 anti-human IgG (Fc specific) and streptavidin-alkaline phosphatase diluted 1:1000 in 1% BSA-PBS (1 mM calcium) and incubating at 37° C. for 15 min. This allowed the soluble multivalent receptor complex to form.
3. Potential inhibitors such as glyco-amino acids or glycopeptides of structural formula I were allowed to react with the soluble receptor at 37° C. for 45 min. This test assumes that optimal binding, between the soluble phase receptor complex and the inhibitor (non-natural ligand), would occur within this time frame. This solution was placed in the microtitre wells that were prepared in step 1. The plate was incubated at 37° C. for 45 minutes to allow the soluble receptor to bind to its natural ligand. In the presence of a strong inhibitor only a few receptors would be free to bind to the microtitre plate coated with the natural ligand.
as §5, with “control was” for “control is”, “it was” for “it is”, “This was” for “This is”, “that was” for “that is”, “O.D.), was” for “O.D.), is”

P-selectin [1] = assay: ELISA assay: inhibition of P-selectin-IgG chimera binding to 2,3 sLex glycolipid; details: FIG. 5; tested at several concentrations; results expressed as percent of control binding
Experimental: as §1, §2, §3, §4, §5, §6, §7
1. 2,3 sLex glycolipid (25 picomol/well) was transferred into microtitre wells as solutions and evaporated off. Excess, which remained unattached, was washed off with water. […]
as §5, with “was” for “is”, “This is considered 100% binding.” left out, “The reciprocal of this is the % inhibition.” left out

P-selectin [2] = assay: P-selectin/HL-60 assay; type: cell-based; details: FIG. 6; HL-60 cells; tested at several concentrations
Description: The glyco-amino acids or glycopeptides of structural formula I can be tested for their ability to inhibit P-selectin binding to its native ligand. A generalized procedure for testing the ligands is given below. A P-selectin/HL-60 assay is preferably used which consists of the following steps:
1. HL-60 cells are harvested and pelleted by centrifugation. The cells are washed, counted and the volume adjusted appropriately.
2. PVC microtiter plate is blocked with a blocking agent, and washed with TBS-BSA.
3. P-selectin is diluted appropriately in BSA-TBS Ca containing goat F(ab')2 anti-human IgG (Fc spec) and streptavidin-alkaline phosphatase. Positive controls have DMF added to equal the highest concentration of DMF in the sample compounds.
4. Ligands are incubated at room temperature with brisk rotation. […]
Para-nitrophenylphosphonate is added to the plate. […] Aliqouts from each well is transferred to a polystyrene microtiter plate and O.D. read at 405 nm. […] The signal produced by the receptor that is previously treated with an inhibitor (recorded as O.D.), is divided by the signal produced by the positive control and multiplied by 100 to calculate the % receptor bound to the well in the presence of the inhibitor. […]
1. […] The cells were washed three times with TBS without Ca, counted and the volume adjusted to 1.9×10^6 /ml in 1% BSA-TBS Ca just prior to use. […]

[3] = tested on: lymphocyte binding to high endothelial venules (HEV), L-selectin mediated; assay: Stamper-Woodruff assay (lymphocyte adhesion to HEV of lymph node frozen sections); type: cell-based, female Swiss Webster mice; female Sprague-Dawley rats; details: FIG. 7, percent of relative binding
Description: (§8) Lymphocytes are known to circulate from blood to lymphoid tissues via high endothelial venules (HEV) on lymph nodes. L-selectin is expressed on the surface of lymphocytes and is believed to mediate lymphocyte adhesion by binding to the natural ligand on the HEV. The glyco-amino acids or glycopeptides of structural formula I can be tested for their ability to bind to a selectin receptor and/or block the binding site of the receptor and thereby prevent a natural ligand from binding to the selectin receptor. See, for example, Stoolman et al, The Journal of Cell Biology (1983) 96:722. The Stamper-Woodruff assay is well known in the an, and generally consists of the following three steps:
1. Preparation of the lymphocytes:
(a) The lymphocytes are obtained from the mesenteric nodes of female Swiss Webster mice, by gently teasing tissues with phosphate buffered saline (PBS). The cells are obtained by gently squeezing the cells from the tissues. The cells are dispersed and the cell clumps are removed. The single cell suspension is suspended, washed, and kept on ice until use (less than two hours). Cells are counted and prepared at an appropriate concentration.
(b) The superficial and deep cervical lymph nodes of female Sprague-Dawley rats are dissected and prepared in the same way as the mice.
2. Preparation of frozen sections:
Superficial or deep cervical lymph nodes are dissected from the animals, snap frozen, and immediately placed in a cryostat for sectioning. 10-μm sections are prepared and transferred onto glass slides, and air dried.
3. Potential inhibitors are added to lymphocyte suspensions 10-30 minutes before the start of the binding assay, and unless otherwise stated, are present throughout the subsequent binding incubation.
The frozen sections are used in the order in which they are cut. Aliquots of untreated lymphocytes (positive control), suspensions containing fucoidin (negative control) and suspensions containing potential inhibitors are layered on the sections in an arbitrary sequence such that the control and each test substance are represented once in a series.
The binding of the lymphocytes to the HEV is easily distinguishable from binding elsewhere by virtue of the characteristic picture of tightly packed, darkly stained lymphocytes overlaying the histologically distinctive HEV. The number of adherent lymphocytes on each HEV are counted and the average number of adherent cells per HEV (cells bound per HEV) is calculated. The results are expressed as a percent of relative binding, wherein the positive control is considered to be 100% binding.
as §8, with “were” for “can be”, “art,” for “an,”
(a) The lymphocytes were obtained from the mesenteric nodes of female Swiss Webster mice (23-27 g), by gently teasing tissues by phosphate buffered saline (PBS). […] Cells were counted and prepared at 3-4×10^7 cells/ml. […]

| Structure (SMILES) | inhibition of the binding of sLe^x to L-selectin (L-selectin) | inhibition of the binding of sLe^x to P-selectin (P-selectin [1]) | inhibition of the binding of sLe^x to P-selectin in the HL-60 assay (P-selectin [2]) | inhibitory effects in the Stamper-Woodruff assay (cell adhesion) [3] |
| --- | --- | --- | --- | --- |
| C[C@@H]1O[C@@H](CC(=O)N2CCC[C@H]2C(=O)N[C@@H](Cc2ccccc2)C(=O)O)[C@@H](O)[C@H](O)[C@@H]1O [#1, N-[(1-deoxy-α-L-fucopyranosyl)acetyl]-L-proline-L-phenylalanine] | inhibit the binding of sLe^x to L-selectin | inhibit the binding of sLe^x to P-selectin | inhibit the binding of sLe^x to P-selectin | inhibitory effects |
| C[C@H](NC(=O)C[C@@H]1O[C@@H](C)[C@@H](O)[C@@H](O)[C@@H]1O)C(=O)N1CCC[C@H]1C(=O)N[C@@H](Cc1ccccc1)C(=O)O [#2, N-[(1-deoxy-α-L-fucopyranosyl)acetyl]-L-alanine-L-proline-L-phenylalanine] | inhibit the binding of sLe^x to L-selectin |  | inhibit the binding of sLe^x to P-selectin | inhibitory effects |
| C[C@@H]1O[C@@H](CC(=O)N[C@@H](CCCCNC(=O)OC(C)(C)C)C(=O)O)[C@@H](O)[C@H](O)[C@@H]1O [#3, N-ω-t-butoxylcarbonyl-N-α-[(1-deoxy-α-L-fucopyranosyl)acetyl]-L-lysine] | inhibit the binding of sLe^x to L-selectin | inhibit the binding of sLe^x to P-selectin |  | inhibitory effects |
| C[C@@H]1O[C@@H](CCCC(=O)N2CCC[C@H]2C(=O)N[C@@H](Cc2ccccc2)C(=O)O)[C@@H](O)[C@H](O)[C@@H]1O [#4, N-[4-(1-deoxy-α-L-fucopyranosyl)n-butanoyl]-L-proline-L-phenylalanine] | inhibit the binding of sLe^x to L-selectin | inhibit the binding of sLe^x to P-selectin |  | inhibitory effects |
| C[C@@H]1O[C@@H](CC(=O)N2CCC[C@H]2C(=O)N[C@H](C(=O)O)c2ccccc2)[C@@H](O)[C@H](O)[C@@H]1O [#5, N-[(1-deoxy-α-L-fucopyranosyl)acetyl]-L-proline-L-phenylglycine] | inhibit the binding of sLe^x to L-selectin | inhibit the binding of sLe^x to P-selectin |  | inhibitory effects |
| CC1OC(CCCC(=O)NC(Cc2ccccc2)C(=O)O)C(O)C(O)C1O [#6, N-[4-(1-deoxy-α-L-fucopyranosyl)n-butanoyl]-L-phenylalanine] | inhibit the binding of sLe^x to L-selectin |  |  |  |
